Patent publication US7060293B1, “Powder-layered oral dosage forms” (Purdue Pharma, priority 1994, dated 2006)
Where a name gives a salt, the structure may show the parent alone.

assay: Bulk density (poured and tapped) of drug powders and processing aid; assay type: physicochemical; conditions: entries with asterisk: Bulk Densities performed at PRC

Question: With `O=C(O)Cc1ccccc1Nc1c(Cl)cccc1Cl` [Diclofenac Sodium] as the molecule, how does the “Tapped Bulk Densities” value read?
Answer: Its value is 0.31 g/mL.

Question: For `Cn1c(=O)c2[nH]cnc2n(C)c1=O` [Aminophylline USP, Aminophylline], which “Tapped Bulk Densities” value is on record?
Answer: Its value is 0.62 g/mL.

Question: For `COc1cccc(C2(O)CCCCC2CN(C)C)c1` (stereo not shown) [Tramadol HCL], which “Tapped Bulk Densities” value is on record?
Answer: The value was 0.42 g/mL.

Question: Which “Tapped Bulk Densities” value does the source give for `O=C1O[C@H]([C@@H](O)CO)C([O-])=C1O.[Na+]` [Sodium Ascorbate USP, Sodium Ascorbate] here?
Answer: Its value is 0.66 g/mL.

Question: Which “Tapped Bulk Densities” value does the source give for `Cn1c(=O)c2[nH]cnc2n(C)c1=O` [Theophylline Anhydrous] here?
Answer: The value was 0.44 g/mL.

same assay, conditions: powder used in the examples

Question: For “Codeine Sulfate [Codeine Sulfate USP Medium Crystals Fine]”, which bulk density is on record?
Answer: The bulk density was “about 0.6 g/ml”.

Question: Which bulk density does the source give for `CC(=O)Nc1ccc(O)cc1` [Acetaminophen] here?
Answer: The bulk density was “about 0.42 g/ml”.

Question: Which results are given for `O.OC[C@H]1O[C@@H](O[C@H]2[C@H](O)[C@@H](O)[C@@H](O)O[C@@H]2CO)[C@H](O)[C@@H](O)[C@H]1O` [lactose hydrous impalpable]?
Answer: bulk density: 0.56 g/mL; tapped bulk density: about 0.64 g/ml

Question: For `COc1cccc(C2(O)CCCCC2CN(C)C)c1` (stereo not shown) [Tramadol HCL], which bulk density is on record?
Answer: The bulk density was “about 0.42 g/ml”.

Question: Which bulk density does the source give for `CCN(CC)CCNC(=O)c1cc(Cl)c(N)cc1OC` [Metoclopramide HCL] here?
Answer: Its bulk density is “about 0.5 g/ml”.

assay: not given; conditions: entries without asterisk (not marked as performed at PRC); cited from earlier work

Question: Which “Tapped Bulk Densities” value does the source give for “Doxycycline Metaphosphate Sodium Complex” here?
Answer: The value was 0.49 g/mL.

Question: With `CCN(CC)CCNC(=O)c1cc(Cl)c(N)cc1OC` [Metoclopramide HCL] as the molecule, how does the “Tapped Bulk Densities” value read?
Answer: The value was 0.5 g/mL.
